# Measured values taken from patent publication US7795299B2, “Neo-tanshinlactone and analogs as potent and selective anti-breast cancer agents” (The University of North Carolina at Chapel Hill, priority 2004, dated 2010).
# Several values for one entry are separate records, joined by “and”; a condition that tells them apart may be missing. Identical values can stand only once. Counter-ions that a name gives are not always drawn.
# Legend:
# [1] = test system: ER+ human breast cancer (MCF-7 and ZR-75-1); assay: Comparison of potency and selectivity against ER+ breast cancer cell lines in vitro; assay type: cell-based
# Method: (§1) In Vitro Anticancer Assay (Nakanishi, Y. et al., J. Med. Chem. 2003, 46, 3185). All stock cultures were grown in T-25 flasks. Freshly trypsinized cell suspensions were seeded in 96-well microtiter plates at densities of 1500-7500 cells per well with compounds added from DMSO-diluted stock. After 3 days in culture, attached cells were fixed with cold 50% trichloroacetic acid and then stained with 0.4% sulforhodamine B (SRB). The absorbency at 562 nm was measured using a microplate reader after solubilizing the bound dye. The mean ED50 is the concentration of agent that reduces cell growth by 50% under the experimental conditions and is the average from at least three independent determinations that were reproducible and statistically significant (FIG. 2). The following human tumor cell lines were used in the assay: A549 (non small cell lung cancer), MCF-7 (estrogen receptor positive breast cancer), ZR-75-1 (estrogen receptor positive breast cancer), MDA-MB-231 (estrogen receptor negative breast cancer), HS 587-T (estrogen receptor negative breast cancer), SK− BR-3 (HER-2-overexpressing breast cancer), A431 (EGFRoverexpressing skin cancer), LN-CaP (AR-dependent prostate cancer), SW620 (colon cancer), PC-3 (prostate cancer), KB (nasopharyngeal carcinoma), KB-VIN (vincristine-resistant KB subline). All cell lines were obtained from the Lineberger Comprehensive Cancer Center (UNC-CH) or from ATCC (Rockville, Md.) and were cultured in RPMI-1640 medium supplemented with 25 mMHEPES, 0.25% sodium bicarbonate, 10% fetal bovine serum, and 100 μg/mL kanamycin.
# (§2) Biological assay. All stock cultures are grown in T-25 flasks. Freshly trypsinized cell suspensions were seeded in 96-well microtitre plates at densities of 1500-7500 cells per well with compounds added from DMSO-diluted stock. After 3 days in culture, attached cells were fixed with cold 50% trichloroacetic acid and then stained with 0.4% sulforhodamine B (SRB). The absorbency at 562 nm was measured using a microplate reader after solubilizing the bound dye. The mean ED50 is the concentration of agent that reduces cell growth by 50% under the experimental conditions and is the average from at least three independent determinations that were reproducible and statistically significant. […]
# [2] = test system: ZR-75-1 (estrogen receptor positive breast cancer); assay: In vitro anticancer assay (SRB), ZR-75-1; assay type: cell-based, human; conditions: concentration that reduces cell growth by 50%, 3 days in culture; for IC50: Homo sapiens, ZR-75-1, 72 h, read-out: ED50, ZR-75-1 (ER+)
# Method: (§3) All stock cultures were grown in T-25 flasks. Freshly trypsinized cell suspensions were seeded in 96-well microtiter plates at densities of 1500-7500 cells per well with compounds added from DMSO-diluted stock. After 3 days in culture, attached cells were fixed with cold 50% trichloroacetic acid and then stained with 0.4% sulforhodamine B (SRB). The absorbency at 562 nm was measured using a microplate reader after solubilizing the bound dye.
# (§4) Biological assay. All stock cultures are grown in T-25 flasks. Freshly trypsinized cell suspensions were seeded in 96-well microtitre plates at densities of 1500-7500 cells per well with compounds added from DMSO-diluted stock. After 3 days in culture, attached cells were fixed with cold 50% trichloroacetic acid and then stained with 0.4% sulforhodamine B (SRB). The absorbency at 562 nm was measured using a microplate reader after solubilizing the bound dye.
# [3] = test system: PC-3 (prostate cancer); assay: In vitro anticancer assay (SRB), PC-3; assay type: cell-based, human; conditions: concentration that reduces cell growth by 50%, 3 days in culture
# Method: as §2, with “In Vitro Anticancer Assay (Nakanishi, Y. et al., J. Med. Chem. 2003, 46, 3185).” for “Biological assay.”, “were” for “are”, “microtiter” for “microtitre”, “significant (FIG. 2).” for “significant.”
# (§5) Biological assay. […] The absorbency at 562 nm was measured using a microplate reader after solubilizing the bound dye. […]
# [4] = test system: MDA-MB-231 (estrogen receptor negative breast cancer); assay: In vitro anticancer assay (SRB), MDA-MB-231; assay type: cell-based, human
# Method: as §3, §4
# [5] = test system: KB-VIN (vincristine-resistant KB subline); assay: In vitro anticancer assay (SRB), KB-VIN; assay type: cell-based, human; conditions: for ED50, KB-VIN: concentration that reduces cell growth by 50%, 3 days in culture, SRB
# Method: as §1
# (§6) Biological assay. All stock cultures are grown in T-25 flasks. Freshly trypsinized cell suspensions were seeded in 96-well microtitre plates at densities of 1500-7500 cells per well with compounds added from DMSO-diluted stock. After 3 days in culture, attached cells were fixed with cold 50% trichloroacetic acid and then stained with 0.4% sulforhodamine B (SRB). The absorbency at 562 nm was measured using a microplate reader after solubilizing the bound dye. […]
# [6] = test system: HS 587-T (estrogen receptor negative breast cancer); assay: In vitro anticancer assay (SRB), HS 587-T; assay type: cell-based, human; conditions: concentration that reduces cell growth by 50%, 3 days in culture
# Method: as §3, §4
# [7] = test system: SK-BR-3 (HER-2-overexpressing breast cancer); assay: In vitro anticancer assay (SRB), SK-BR-3; assay type: cell-based, human; conditions: for ED50, SK-BR-3 (ER−, HER2+) / IC50: concentration that reduces cell growth by 50%, 3 days in culture, SRB; for IC50: Homo sapiens, SK-BR-3, 72 h, read-out: ED50, SK-BR-3 (ER−, HER2+)
# Method: as §1
# (§7) Biological assay. All stock cultures are grown in T-25 flasks. Freshly trypsinized cell suspensions were seeded in 96-well microtitre plates at densities of 1500-7500 cells per well with compounds added from DMSO-diluted stock. After 3 days in culture, attached cells were fixed with cold 50% trichloroacetic acid and then stained with 0.4% sulforhodamine B (SRB). The absorbency at 562 nm was measured using a microplate reader after solubilizing the bound dye. The mean ED50 is the concentration of agent that reduces cell growth by 50% under the experimental conditions and is the average from at least three independent determinations that were reproducible and statistically significant. The following human tumor cell lines were used in the assay: A549 (non-small cell lung cancer), MCF-7 (estrogen receptor positive breast cancer), ZR-75-1 (estrogen receptor positive breast cancer), MDA MB-231 (estrogen receptor negative breast cancer), HS 587-T (estrogen receptor negative breast cancer), SK-BR-3 (estrogen receptor negative, HER-2 over-expressing breast cancer), A431 (EGFR over-expressing skin cancer), LN-CaP (AR-dependent prostate cancer), SW620 (colon cancer), PC-3 (prostate cancer), KB (nasopharyngeal carcinoma), KB-VIN (Vincristine resistant KB subline). All cell lines were obtained from the Lineberg Cancer Center (UNC-CH) or from ATCC (Rockville, Md.) and were cultured in RPMI-1640 medium supplemented with 25 mM HEPES, 0.25% sodium bicarbonate, 10% fetal bovine serum, and 100 μg/mL kanamycin.
# [8] = test system: A431 (EGFR over-expressing skin cancer); assay: In vitro anticancer assay (SRB), A431; assay type: cell-based, human; conditions: for ED50, A431 / IC50: concentration that reduces cell growth by 50%, 3 days in culture, SRB; for IC50: Homo sapiens, A-431, 72 h, read-out: ED50, A431
# Method: as §1, §7
# [9] = test system: LN-CaP (AR-dependent prostate cancer); assay: In vitro anticancer assay (SRB), LN-CaP; assay type: cell-based, human; conditions: for ED50, LN-CaP: concentration that reduces cell growth by 50%, 3 days in culture, SRB
# Method: as §1, §2
# [10] = test system: MCF-7 (estrogen receptor positive breast cancer); assay: In vitro anticancer assay (SRB), MCF-7; assay type: cell-based, human; conditions: for ED50, MCF-7 (ER+) / IC50: concentration that reduces cell growth by 50%, 3 days in culture, SRB; for IC50: Homo sapiens, MCF7, 72 h, read-out: ED50, MCF-7 (ER+)
# Method: as §3, §4
# [11] = test system: several human cancer cell lines; assay: Cytotoxic activity against several human tumor cell lines (panel, overall statements); assay type: cell-based
# Method: as §1, §6
# [12] = test system: A549 (non small cell lung cancer); assay: In vitro anticancer assay (SRB), A549; assay type: cell-based, human
# Method: as §2, with “In Vitro Anticancer Assay (Nakanishi, Y. et al., J. Med. Chem. 2003, 46, 3185).” for “Biological assay.”, “were” for “are”, “microtiter” for “microtitre”, “significant (FIG. 2).” for “significant.”
# as §5
# [13] = test system: SW620 (colon cancer); assay: In vitro anticancer assay (SRB), SW620; assay type: cell-based, human; conditions: for ED50, SW620 / IC50: concentration that reduces cell growth by 50%, 3 days in culture, SRB; for IC50: Homo sapiens, SW-620, 72 h, read-out: ED50, SW620
# Method: as §1, §7
# [14] = test system: KB (nasopharyngeal carcinoma); assay: In vitro anticancer assay (SRB), KB; assay type: cell-based, human; conditions: for ED50, KB / IC50: concentration that reduces cell growth by 50%, 3 days in culture, SRB; for IC50: Homo sapiens, 72 h, read-out: ED50, KB
# Method: as §1, §7
# [15] = against ER+ (ER+ and HER-2++) breast cancer in vitro
# [16] = concentration that reduces cell growth by 50%, 3 days in culture, SRB
compound,measurement,setting,value
"Cc1cccc2c1ccc1c3occ(C)c3c(=O)oc21 [Compound 1, Neo-tanshinlactone]",fold more potent than tamoxifen citrate,[1]; [15],10 fold
same,fold more selective than tamoxifen citrate,[1]; [15],20 fold
same,times better activity than compound 2a and tamoxifen,[1]; against ER+ cell lines,10 times
same,"ED50, ZR-75-1 (ER+)",[2],0.25 µg/mL
same,"ED50, PC-3",[3],10 µg/mL
same,"Percent inhibition at the test concentration (bracketed value), MDA-MB-231",[4]; at 20 μg/mL (Table 1),17%
same,"ED50, MDA-MB-231 (ER−)",[4]; [16],10 µg/mL and 10.0 µg/mL
same,"ED50, MDA-MB-231 (ER−)","[4]; concentration that reduces cell growth by 50%, 3 days in culture, SRB, listed as Neo-tashinlactone (1)",> 20 µg/mL
same,"Percent inhibition at the test concentration (bracketed value), KB-VIN",[5]; at 10 μg/mL (Table 2),9%
same,"ED50, KB-VIN",[5],> 10 µg/mL
same,"ED50, HS 587-T (ER−)",[6]; printed HS587-1 in Table 4,16 µg/mL and 16.0 µg/mL
same,activity against SK-BR-3 (in words),[7]; HER-2-overexpressing breast cancer cell line,active
same,"ED50, SK-BR-3 (ER−, HER2+)",[7],0.2 µg/mL and 0.18 µg/mL
same,"fold more sensitive, SK-BR-3 versus MCF-7",[7]; ratio of sensitivity of the two cell lines,3 fold
same,activity against A431 (in words),[8]; EGFR overexpressing skin cancer cell line,essentially inactive
same,"Percent inhibition at the test concentration (bracketed value), A431",[8]; at 10 μg/mL (Table 2),35%
same,"ED50, A431",[8],> 10 µg/mL
same,activity against LN-CaP (in words),[9]; AR-dependent prostate cancer cell line,essentially inactive
same,"Percent inhibition at the test concentration (bracketed value), LN-CaP",[9]; at 10 μg/mL (Table 2),28-36%
same,"ED50, LN-CaP",[9],> 10 µg/mL
same,"Percent inhibition at the test concentration (bracketed value), MCF-7",[10]; at 2.5 μg/mL (Table 1),57%
same,"ED50, MCF-7 (ER+)",[10],0.6 µg/mL and 0.60 µg/mL
same,"ED50, MCF-7 (ER+)",[10]; listed as Neo-tashinlactone (1),< 2.5 µg/mL
same,concentration at which active against MCF-7,"[10]; first screen, Example 1",0.6˜1.2 μg/mL
same,activity against other cell lines in the panel (in words),[11]; at concentrations up to 10 μg/mL,insignificant activity
same,"Percent inhibition at the test concentration (bracketed value), A549",[12]; at 20 μg/mL (Table 1),10%
same,"ED50, A549",[12]; [16],> 20 µg/mL
same,"Percent inhibition at the test concentration (bracketed value), SW620",[13]; at 10 μg/mL (Table 2),22%
same,"ED50, SW620",[13],> 10 µg/mL
same,"Percent inhibition at the test concentration (bracketed value), KB",[14]; at 10 μg/mL (Table 2),18%
same,"ED50, KB",[14],> 10 µg/mL
"CC/C(=C(\c1ccccc1)c1ccc(OCCN(C)C)cc1)c1ccccc1 [TAM, tamoxifen citrate, reference compound]",IC50,[2],5 µg/mL
same,"ED50, ZR-75-1 (ER+)",[2]; listed as Tamoxifen citrate,3.6 µg/mL
same,"ED50, PC-3",[3],10 µg/mL
same,IC50,"[4]; Homo sapiens, MDA-MB-231, 72 h, concentration that reduces cell growth by 50%, 3 days in culture, SRB, read-out: ED50, MDA-MB-231 (ER−)",8 µg/mL
same,"ED50, MDA-MB-231 (ER−)","[4]; concentration that reduces cell growth by 50%, 3 days in culture, SRB, listed as Tamoxifen citrate",7.0 µg/mL
same,"ED50, KB-VIN",[5],9 µg/mL
same,"ED50, HS 587-T (ER−)",[6]; printed HS587-1 in Table 4,9 µg/mL and 7.0 µg/mL
same,"ED50, HS 587-T (ER−)","[6]; printed HS587-1 in Table 4, listed as Tamoxifen citrate",8.5 µg/mL
same,IC50,[7],5 µg/mL
same,"ED50, SK-BR-3 (ER−, HER2+)",[7],5.0 µg/mL
same,IC50,[8],7 µg/mL
same,"ED50, A431",[8],7.0 µg/mL
same,"ED50, LN-CaP",[9],6 µg/mL
same,IC50,[10],5 µg/mL
same,"ED50, MCF-7 (ER+)",[10],5.0 µg/mL
same,"ED50, MCF-7 (ER+)",[10]; listed as Tamoxifen citrate,5.0 µg/mL
same,IC50,[13],4 µg/mL
same,"ED50, SW620",[13],4.0 µg/mL
same,IC50,[14],9 µg/mL
same,"ED50, KB",[14],9.0 µg/mL
"Cc1coc2c1c(=O)oc1c3ccccc3c(Cl)cc21 [Compound 2d, 6-Chloro-17-methyl-11,15-dioxa-cyclopenta[a]phenanthren-12-one]",IC50,[2],8.6 µg/mL
same,melting point,,220 to 221 °C
same,IC50,[7],4.5 µg/mL
same,IC50,[8],8 µg/mL
same,IC50,[10],5 µg/mL
same,overall cytotoxic activity (in words),"[11]; several human tumor cell lines, Table 4",did not show strong activity
same,IC50,[13],> 10 µg/mL
same,IC50,[14],> 10 µg/mL
